Test results taken from article PMC4598832 (Scientific Reports, 2015).
Where a chain is given by its changes, count along the chain named. Several values for one entry are separate records, joined by “and”; a condition that tells them apart may be missing. Identical values can stand only once. Entries after “also recorded” stand apart in the source; their conditions may differ. Like-named read-outs stand apart in the source and are kept apart here.

What was measured:
[1] = biological target: T1, Olfr73 E208A (Mus musculus, UniProt Q920P2, E208A); assay: cAMP reporter gene (SEAP) assay, Olfr73 E208A in Hana3A cells; assay type: cell-based
T1 construct: Rho (rhodopsin) tag; Myc; expressed in transfected cells; host or cells: Hana 3A cells
T1 sequence (Q920P2 1-313 E208A): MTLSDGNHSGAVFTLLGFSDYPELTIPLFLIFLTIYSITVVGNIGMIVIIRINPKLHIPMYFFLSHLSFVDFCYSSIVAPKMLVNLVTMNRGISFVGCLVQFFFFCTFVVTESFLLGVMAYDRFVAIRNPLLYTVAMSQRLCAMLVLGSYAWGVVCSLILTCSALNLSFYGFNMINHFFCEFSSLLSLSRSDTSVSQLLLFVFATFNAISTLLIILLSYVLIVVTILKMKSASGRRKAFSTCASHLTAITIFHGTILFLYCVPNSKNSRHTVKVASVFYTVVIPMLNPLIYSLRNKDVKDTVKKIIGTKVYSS

[2] = biological target: T2, Olfr73 S113A (Mus musculus, UniProt Q920P2, S113A); assay: cAMP reporter gene (SEAP) assay, Olfr73 S113A in Hana3A cells; assay type: cell-based
T2 construct: Rho (rhodopsin) tag; expressed in transfected cells; host or cells: Hana 3A cells
T2 sequence (Q920P2 1-313 S113A): T1 sequence (Q920P2 1-313 E208A) with S113A, A208E

[3] = biological target: T3, Olfr73 (mOR-EG) wt (Mus musculus, UniProt Q920P2); assay: cAMP reporter gene (SEAP) assay, Olfr73 wild type in Hana3A cells; assay type: cell-based
T3 construct: Rho (rhodopsin) tag; Myc; Flag; expressed in transfected cells; host or cells: Hana 3A cells
T3 sequence (Q920P2 1-313): T1 sequence (Q920P2 1-313 E208A) with A208E

[4] = biological target: Olfr74 A113S (Mus musculus, UniProt Q920P1, A113S); assay: cAMP reporter gene (SEAP) assay, Olfr74 A113S in Hana3A cells; assay type: cell-based
Description: (§1) Confluent Hana 3A cells (35000 cells per well) cultured in a 96-well plate at 37 °C (Perkin-Elmer) were transfected with 0.15 μg of wild-type or mutated Olfr73 or Olfr74 encoding plasmid DNAs and 0.15 μg of the cAMP response element secreted alkaline phosphatase reporter plasmid (pCRE-SEAP) using Lipofectamine 2000 (Invitrogen). Cells were induced 8 h after transfection with cell medium containing the ligand, or cell medium alone. For screening compound library, stock solutions of odorants (0.2–1 M) were prepared from pure compounds either in dimethyl sulfoxide (DMSO, Sigma-Aldrich, Buchs, CH) or ethanol and were stored at −20 °C. Mixtures of 5 to 10 odorants prepared form stock solutions, were diluted in serum-free DMEM and applied to the cells 8 hours after transfection (<100 μM, final individual odorant concentration). Experiments were carried out in triplicates and in parallel with a mock control (cells transfected with non-coding plasmid DNA). A relative SEAP activity [(n-1) times mock level] was calculated for each odorant mixture and those that induced an activity larger than 1 were considered for further analysis.
For odorant dose-dependent measurements of cAMP signaling specific ligands were added at increasing concentrations and measured in duplicates. Odorant-induced responses were measured using the SEAP activity reporter assay 16 h after stimulation. An aliquot of supernatant from each well was then mixed with an equal volume of 1 M diethanolamine bicarbonate (pH 9.8) containing 20 mM p-nitrophenyl phosphate and 1 mM MgCl2 (Sigma). The kinetics of hydrolysis of p-nitrophenol phosphate by alkaline phosphatase was determined by measuring the absorbance at 410 nm using a multiwell plate reader (SpectraMax 360, Molecular Devices). […] Dose response curves and EC50 values were then determined by fitting these points with the Hill equation using IGOR Pro software (WaveMetrics, Portland, OR, USA). Statistical significance of the differences in EC50 values was analyzed using a two-tailed Student’s t test. p values below 0.05 were considered as being significant.

[5] = biological target: Olfr74 F260Y (Mus musculus, UniProt Q920P1, F260Y); assay: cAMP reporter gene (SEAP) assay, Olfr74 F260Y in Hana3A cells; assay type: cell-based
Description: as §1
For odorant dose-dependent measurements of cAMP signaling specific ligands were added at increasing concentrations and measured in duplicates. Odorant-induced responses were measured using the SEAP activity reporter assay 16 h after stimulation. An aliquot of supernatant from each well was then mixed with an equal volume of 1 M diethanolamine bicarbonate (pH 9.8) containing 20 mM p-nitrophenyl phosphate and 1 mM MgCl2 (Sigma). The kinetics of hydrolysis of p-nitrophenol phosphate by alkaline phosphatase was determined by measuring the absorbance at 410 nm using a multiwell plate reader (SpectraMax 360, Molecular Devices). To remove SEAP activity background noise from the measurements, the mean value of mock control SEAP activity (Supplementary Figures 8 and 9) was subtracted from the mean value of OR-induced SEAP activity for each odorant concentration. Dose response curves and EC50 values were then determined by fitting these points with the Hill equation using IGOR Pro software (WaveMetrics, Portland, OR, USA). Statistical significance of the differences in EC50 values was analyzed using a two-tailed Student’s t test. p values below 0.05 were considered as being significant.

[6] = biological target: T4, Olfr74 (mOR-EV) wt (Mus musculus, UniProt Q920P1); assay: cAMP reporter gene (SEAP) assay, Olfr74 wild type in Hana3A cells; assay type: cell-based; conditions: for activation of Olfr74 wild type: result in words
T4 sequence (Q920P1 1-318): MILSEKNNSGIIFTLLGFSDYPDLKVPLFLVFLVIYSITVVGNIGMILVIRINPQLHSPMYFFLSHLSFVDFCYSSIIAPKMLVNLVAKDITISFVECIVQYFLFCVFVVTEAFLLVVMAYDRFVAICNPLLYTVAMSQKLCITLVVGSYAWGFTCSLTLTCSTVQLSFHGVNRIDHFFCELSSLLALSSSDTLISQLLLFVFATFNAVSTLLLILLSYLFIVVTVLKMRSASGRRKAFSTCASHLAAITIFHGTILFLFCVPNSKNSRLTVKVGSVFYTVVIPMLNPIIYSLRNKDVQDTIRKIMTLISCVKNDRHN

[7] = biological target: T5, Olfr73 S113A-E208A-Y260F (Mus musculus, UniProt Q920P2, E208A/S113A/Y260F); assay: cAMP reporter gene (SEAP) assay, Olfr73 triple mutant in Hana3A cells; assay type: cell-based
T5 construct: Rho (rhodopsin) tag; Myc; expressed in transfected cells; host or cells: Hana 3A cells
T5 sequence (Q920P2 1-313 S113A/E208A/Y260F): T1 sequence (Q920P2 1-313 E208A) with S113A, Y260F

[8] = biological target: T6, Olfr73 Y260F (Mus musculus, UniProt Q920P2, Y260F); assay: cAMP reporter gene (SEAP) assay, Olfr73 Y260F in Hana3A cells; assay type: cell-based
T6 construct: Rho (rhodopsin) tag; Myc; expressed in transfected cells; host or cells: Hana 3A cells
T6 sequence (Q920P2 1-313 Y260F): T1 sequence (Q920P2 1-313 E208A) with A208E, Y260F
Description: Confluent Hana 3A cells (35000 cells per well) cultured in a 96-well plate at 37 °C (Perkin-Elmer) were transfected with 0.15 μg of wild-type or mutated Olfr73 or Olfr74 encoding plasmid DNAs and 0.15 μg of the cAMP response element secreted alkaline phosphatase reporter plasmid (pCRE-SEAP) using Lipofectamine 2000 (Invitrogen). Cells were induced 8 h after transfection with cell medium containing the ligand, or cell medium alone. […] Experiments were carried out in triplicates and in parallel with a mock control (cells transfected with non-coding plasmid DNA).

[9] = tested on: Olfr74 A113S-A208E-F260Y; assay: cAMP reporter gene (SEAP) assay, Olfr74 triple mutant in Hana3A cells; assay type: cell-based, mouse; conditions: result in words
Description: as §1, with “Mixtures of 5 to 10 odorants prepared form stock solutions, were diluted in serum-free DMEM and applied to the cells 8 hours after transfection (<100 μM, final individual odorant concentration). Experiments were carried out in triplicates and in parallel with a mock control (cells transfected with non-coding plasmid DNA).” left out
For odorant dose-dependent measurements of cAMP signaling specific ligands were added at increasing concentrations and measured in duplicates. Odorant-induced responses were measured using the SEAP activity reporter assay 16 h after stimulation. […] The kinetics of hydrolysis of p-nitrophenol phosphate by alkaline phosphatase was determined by measuring the absorbance at 410 nm using a multiwell plate reader (SpectraMax 360, Molecular Devices). […]

[10] = tested on: Olfr74; design: method as in PMID 12767924; conditions: HEK cells ref 31; cited from earlier work
[11] = EC50 Olfr73 (E208A), Supplementary Table 1, rounded values derived from Fig. 2 and Supplementary Fig. 4, unit inferred
[12] = EC50 Olfr73 E208A, Hana3A cells, SEAP reporter
[13] = rounded values derived from Fig. 2 and Supplementary Fig. 4, unit inferred, read-out: EC50 Olfr73 (WT), Supplementary Table 1
[14] = EC50 Olfr74 (F260Y), Supplementary Table 1, rounded values derived from Fig. 2 and Supplementary Fig. 4, unit inferred
[15] = EC50 Olfr74 F260Y, Hana3A cells, SEAP reporter
[16] = Hana3A cells, SEAP reporter, read-out: EC50 Olfr74 wt
[17] = rounded values derived from Fig. 2 and Supplementary Fig. 4, unit inferred, read-out: EC50 Olfr74 (WT), Supplementary Table 1
[18] = Hana3A cells, SEAP reporter, read-out: EC50 Olfr73 E208A
[19] = dash in Table 1 = no measurable response, read-out: EC50 Olfr73 S113A
[20] = Hana3A cells, SEAP reporter, dash in Table 1 = no measurable response, read-out: EC50 Olfr73 wt
[21] = dash in Table 1 = no measurable response, read-out: EC50 Olfr73 Y260F
[22] = dash in Table 1 = no measurable response, read-out: EC50 Olfr73 S113A-E208A-Y260F
[23] = read-out: EC50 Olfr73 S113A, dash in Table 1 = no measurable response
[24] = EC50 Olfr73 wt, Hana3A cells, SEAP reporter, dash in Table 1 = no measurable response
[25] = read-out: EC50 Olfr73 S113A-E208A-Y260F, dash in Table 1 = no measurable response

Sequence of Olfr74 A113S (Q920P1 entry or part of it A113S): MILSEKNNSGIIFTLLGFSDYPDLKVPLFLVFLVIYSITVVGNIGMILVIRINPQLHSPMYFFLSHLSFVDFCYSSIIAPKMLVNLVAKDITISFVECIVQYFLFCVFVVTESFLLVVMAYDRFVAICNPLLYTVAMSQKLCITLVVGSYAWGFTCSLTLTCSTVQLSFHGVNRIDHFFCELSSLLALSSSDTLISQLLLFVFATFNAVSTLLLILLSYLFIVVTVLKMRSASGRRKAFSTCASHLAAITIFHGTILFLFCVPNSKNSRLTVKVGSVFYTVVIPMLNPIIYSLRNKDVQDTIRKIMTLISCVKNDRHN
Sequence of Olfr74 F260Y (Q920P1 entry or part of it F260Y): as the sequence (Q920P1 entry or part of it A113S) above, with S113A, F260Y counted along it

SMILES	EC50 [1, 11] [µM]	EC50 [1, 12] [µM]	EC50 [3, 13] [µM]	EC50 [4]	EC50 [5, 14] [µM]	EC50 [5, 15]	EC50 [6, 16]	EC50 [6, 17] [µM]	EC50 [1, 18]	EC50 [2, 19] [µM]	EC50 [3, 20]	EC50 [8, 21] [µM]	activation of Olfr74 wild type ([6]; Hana3A cells, SEAP reporter)	EC50 [7, 22] [µM]	EC50 [2, 23] [µM]	EC50 [3, 24] [µM]	EC50 [7, 25] [µM]	also measured
CCC=CCC1=C(C)CCC1=O [Jasmone, 3-methyl-2-(pent-2-enyl)-cyclopent-2-enone]	70	66 ± 9	> 100	71 µM and ~70 µM	10	8 µM and ~10 µM	28 µM and ~30 µM	30										EC50 ([2]; EC50 Olfr73 S113A, dash in Table 1 = no measurable response): > 100 µM; activation of Olfr73 wild type ([3]; Hana3A cells, SEAP reporter, result in words): inactive; EC50 ([7]; EC50 Olfr73 S113A-E208A-Y260F, dash in Table 1 = no measurable response): 83 ± 11 µM
COC(=O)c1ccc(O)c(OC)c1 [Methyl vanillate, methyl vanillate]						447 ± 36 µM			347 ± 32 µM	> 100	240 µM and 241 µM	> 100	do not activate	> 100				
C=C(C)[C@@H]1CCC2=CC(=O)C[C@@H](C)[C@]2(C)C1 [Nootkatone, nootkatone]	> 100	277 ± 54		78 µM and ~80 µM	40	35 µM and ~40 µM	86 µM and ~90 µM	90							> 100	225 ± 76	> 100	EC50 ([3]; EC50 Olfr73 (WT), Supplementary Table 1, rounded values derived from Fig. 2 and Supplementary Fig. 4, unit inferred): > 100 µM; EC50 ([8]; read-out: EC50 Olfr73 Y260F, dash in Table 1 = no measurable response): > 100 µM
CC(C)=CC1CC(C)CCO1 (centres unmarked) [Rose Oxide, rose oxide]			30	> 100 µM	40	42 µM and ~40 µM	155 ± 21 µM	> 100	~10 µM and 10 µM	23 ± 24	35 ± 20 µM			> 100				activation of Olfr74 triple mutant (A113S, A208E, F260Y) [9]: no detectable activation
C/C=C/c1ccc(OC)c(OC)c1 [MIEG, methyl isoeugenol]		10 ± 5				406 ± 23 µM					131 ± 19 µM	> 100	do not activate		> 100		> 100	
CCOc1cc(C=O)ccc1O [Ethyl vanillin, ethyl vanillin]						171 ± 35 µM			147 ± 11 µM	202 ± 44				> 100		35 ± 4		cAMP signalling upon stimulation of Olfr74 [10]: no cAMP signalling; activation of Olfr74 wild type ([6]; Hana3A cells, SEAP reporter, listed as ethyl vanillin): no detectable activation; activation of Olfr74 wild type ([6]; Hana3A cells, SEAP reporter, listed as ethyl-vanillin): no response was detected; also recorded: do not activate
